The text below walks through data of US20260097047A1, “Small molecule inhibitors of the ribosome biogenesis factor NVL2” (Board of Regents, The University of Texas System, priority 2023, published 2026).

pIC50: −log10 of the molar value. Where only a bound is given, the exact number is not on record here.

One assay deals with HCT116 cells. Briefly: Cell viability assay (CellTiter-Glo, 72 hours) in HCT116 human colorectal cancer cells. The format is cell-based. The settings on record: Homo sapiens, HCT-116; Table 4; HCT116, 72 hours; read-out: Activity. Put shortly: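 2,000 cells/well adhered overnight, then compound added by digital dispenser with DMSO normalized to 0.5%. Viability read after 72 h at 37 °C by ATP-based CellTiter-Glo luminescence. IC50 from ten-point curves baseline-corrected to vehicle, five-parameter asymmetric least-squares fit.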
For orientation: ATP-based viability assays read luminescence as a measure of living cells.
`CC#CCN1C(=O)c2ccccc2Sc2cc(NC(=S)Nc3ccc(OC(F)F)cc3)ccc21` [Table 4: —CH2CCMe; 4-F2HCOPh; CH, 1-(10-(But-2-yn-1-yl)-11-oxo-10,11-dihydrodibenzo[b,f][1,4]thiazepin-7-yl)-3-(4-(difluoromethoxy)phenyl)thiourea]: the pIC50 is more than 6.30.

The assay is the same for the next values; noted with them: Homo sapiens, HCT-116; Table 5; HCT116, 72 hours; read-out: Activity.
`CC#CCN1C(=O)c2ccccc2Sc2cc(Nc3cc(C#N)ccn3)ccc21` [2-((10-(But-2-yn-1-yl)-11-oxo-10,11-dihydrodibenzo[b,f][1,4]thiazepin-7-yl)amino) isonicotinonitrile]: the pIC50 was more than 6.30.
As for `CCC/C=C/CN1C(=O)c2ccccc2Sc2cc(Nc3ncccc3F)ccc21` [(E)-7-((3-Fluoropyridin-2-yl)amino)-10-(hex-2-en-1-yl)dibenzo[b,f][1,4]thiazepin-11 (10H)-one], the pIC50 is more than 6.30.
Turning to `CC#CCN1C(=O)c2ccc(C#N)cc2Sc2cc(Nc3ncc(C#N)cc3C)ccc21` [10-(But-2-yn-1-yl)-7-((5-cyano-3-methylpyridin-2-yl)amino)-11-oxo-10,11-dihydrodibenzo[b,f][1,4]thiazepine-3-carbonitrile], the pIC50 was more than 6.30.
Turning to `CCC/C=C/CN1C(=O)c2ccccc2Sc2cc(Nc3nccnc3C)ccc21` [(E)-10-(Hex-2-en-1-yl)-7-((3-methylpyrazin-2-yl)amino)dibenzo[b,f][1,4]thiazepin-11 (10H)-one], the pIC50 is more than 6.30.

The assay is the same for the next values; noted with them: Homo sapiens, HCT-116; Table 6; HCT116, 72 hours; read-out: Activity.
Consider `CC#CCN1C(=O)c2ccccc2Sc2cc(NC3COCC3C)ccc21` (centres unmarked) [10-(But-2-yn-1-yl)-7-((4-methyltetrahydrofuran-3-yl)amino)dibenzo[b,f][1,4]thiazepin-11 (10H)-one], for which the pIC50 is more than 6.30.

The same assay, now with this note: Table 4; HCT116, 72 hours; read-out: Activity.
As for `CC#CCN1C(=O)c2ccccc2Sc2cc(NC(=S)Nc3cccc(OCF)c3)ccc21` [Table 4: —CH2CCMe; 3-FH2COPh; CH], the pIC50 was more than 6.30.
As for `CC#CCN1C(=O)c2ccccc2Sc2cc(NC(=S)NC3COC3)ccc21` [Table 4: —CH2CCMe; oxetan-3-yl; CH], the pIC50 was more than 6.30.

The same assay, now with this note: Table 5; HCT116, 72 hours; read-out: Activity.
On to `CC#CCN1C(=O)c2ccccc2Sc2cc(Nc3nc(C)cnc3C)cnc21`, for which the pIC50 was more than 6.30.
The same measure, in the same setting: next, `CCCC=CCN1C(=O)c2ccccc2Sc2cc(Nc3ncccc3F)cnc21`: more than 6.30.
Regarding `CC#CCN1C(=O)c2ccccc2Sc2cc(Nc3ccc(C)nn3)cnc21`, the pIC50 was more than 6.30.
With `CC#CCN1C(=O)c2ccccc2Sc2cc(Nc3ncccc3C(=O)OC)ccc21` [Methyl 2-((10-(but-2-yn-1-yl)-11-oxo-10,11-dihydrodibenzo[b,f][1,4]thiazepin-7-yl)amino) nicotinate], the pIC50 is 5.30 to 6.00.

The assay is the same for the next values; noted with them: Table 6; HCT116, 72 hours; read-out: Activity.
Regarding `CC#CCN1C(=O)c2ccccc2Cc2cc(NCCCOC)ccc21` [Table 6: —CH2CCMe; (CH2)3OMe; CH/CH; CH2], the pIC50 was more than 6.30.
Turning to `CC#CCN1C(=O)c2ccccc2Sc2cc(NC3CC(COC)C3)ccc21` (centres unmarked), the pIC50 was more than 6.30.
Turning to `COCC1CC(Nc2cnc3c(c2)Sc2ccccc2C(=O)N3CC#CCl)C1` (centres unmarked) [Table 6: —CH2CCCl; 3-MeOCH2-cBu; CH/N; S], the pIC50 was more than 6.30.
With `COC1CC(Nc2ccc3c(c2)Sc2ccccc2C(=O)N3CC#CCl)C1` (centres unmarked) [Table 6: —CH2CCCl; 3-MeOcBu; CH/CH; S], the pIC50 is more than 6.30.

The same assay, now with this note: Table 7; cell viability assay, CellTiter-Glo, 72 hours; scaffold drawing 42 with R^2, R^3, X/Y, Z; read-out: Activity.
Turning to `COCCN1C(=O)c2ccccc2Sc2cc(NC(=O)c3ccc(Cl)c(OC)c3)ccc21` [—(CH2)2OMe; 3-MeO,4-ClPh; CH/CH; S], the pIC50 is 6.00 to 6.30.
On to `COCCN1C(=O)c2ccccc2Sc2cc(NC(=O)C3CC(=O)C3)ccc21` [—(CH2)2OMe; 3-oxo-cBu; CH/CH; S], for which the pIC50 is 5.30 to 6.00.
Consider `COCCN1C(=O)c2ccccc2Sc2cc(NC(=O)c3cc(C)oc3C)ccc21` [—(CH2)2OMe; 2,5-Me2-furan-3-yl; CH/CH; S], for which the pIC50 was 5.30 to 6.00.
Consider `C#CCOCCN1C(=O)c2ccccc2Sc2cc(NC(=O)c3ccc(OC)c(F)c3)ccc21` [—(CH2)2OCH2CCH; 3-F,4-MeOPh; CH/CH; S], for which the pIC50 was 5.30 to 6.00.

The assay is the same for the next values; noted with them: Table 8; analogs of scaffold drawing 43 defined by R^2, R^3, X/Y, W; read-out: Activity (IC50 class, cell viability assay).
With `CC#CCN1C(=O)c2ccccc2Sc2cc(NC(=O)c3cccc(OC)c3)ccc21` [—CH2CCMe; 3-MeOPh; CH/CH; CH], the pIC50 is more than 6.30.
As for `CC#CCN1C(=O)c2cc(F)ccc2Sc2cc(NC(=O)c3ccc4oc(=O)n(C)c4c3)ccc21`, the pIC50 was more than 6.30.
With `C#Cc1ccc(C(=O)Nc2ccc3c(c2)Sc2ccccc2C(=O)N3CC#CC)cn1` [—CH2CCMe; 6-(HCC)pyrid-3-yl; CH/CH; CH], the pIC50 is more than 6.30.
With `CO[C@H]1C[C@@H](C(=O)Nc2ccc3c(c2)Sc2ccc(F)cc2C(=O)N3CC#CCl)C1` [—CH2CCCl; cis-3-MeOcBu; CH/CF; CH], the pIC50 was more than 6.30.
Same read-out and setting: next, `CC#CCN1C(=O)c2ccccc2Sc2cc(NC(=O)C3CCOC3)cnc21` (centres unmarked) [—CH2CCMe; tetrahydrofuran-3-yl; CH/CH; N]: more than 6.30; `C#CCN1C(=O)c2ccc(Cl)cc2Sc2cc(NC(=O)[C@@H]3C[C@H]3COC)ccc21` (relative stereo) [—CH2CCH; trans-2-MeOCH2-cPr; CCl/CH; CH]: more than 6.30.
The same measure, in the same setting: next, `COCCC(C)C(=O)Nc1cnc2c(c1)Sc1ccccc1C(=O)N2CC#CC1CC1` (centres unmarked) [—CH2CC^cPr; MeO(CH2)2CHMe-; CH/CH; N]: more than 6.30; `CC#CCN1C(=O)c2ccc(C#N)cc2Sc2cc(NC(=O)[C@@H]3C[C@H]3COC)ccc21` (relative stereo) [—CH2CCMe; trans-2-MeOCH2-cPr; CCN/CH; CH]: more than 6.30.
As for `CC#CCN1C(=O)c2ccc(Cl)cc2Sc2cc(NC(=O)[C@@H]3C[C@H]3C(=O)OC)ccc21` (relative stereo) [—CH2CCMe; trans-2-MeO2C-cPr; CCl/CH; CH], the pIC50 was more than 6.30.
Consider `O=C(CCCO)Nc1cnc2c(c1)Sc1ccccc1C(=O)N2CC#CC1CC1` [—CH2CC^cPr; (CH2)3OH; CH/CH; N], for which the pIC50 was more than 6.30.
Consider `COCC1CC(C(=O)Nc2ccc3c(c2)Sc2ccccc2C(=O)N3CC#CC(F)(F)F)C1` (centres unmarked) [—CH2CCCF3; 3-MeOCH2-cBu; CH/CH; CH], for which the pIC50 is more than 6.30.
Regarding `CC#CCN1C(=O)c2ccc(Cl)cc2Sc2cc(NC(=O)CC3COC3)cnc21` [—CH2CCMe; (oxetan-3-yl)CH2; CCl/CH; N], the pIC50 is more than 6.30.
Same read-out and setting: next, `CC#CCN1C(=O)c2cc(F)ccc2Sc2cc(NC(=O)C3CC4(CC(=NO)C4)C3)ccc21` (centres unmarked): more than 6.30; `CC#CCN1C(=O)c2ccccc2Sc2cc(NC(=O)c3cccc(C(=O)N(C)C)c3)ccc21` [—CH2CCMe; 3-Me2NC(O)Ph; CH/CH; CH]: more than 6.30.
For `COCC1CC(C(=O)Nc2ccc3c(c2)Sc2ccc(F)cc2C(=O)N3CC#CCF)C1` (centres unmarked) [—CH2CCCH2F; 3-MeOCH2-cBu; CH/CF; CH], the pIC50 is more than 6.30.
As for `CC#CCN1C(=O)c2ccccc2Sc2cc(NC(=O)[C@H]3C[C@H](O)C3)ccc21` [—CH2CCMe; trans-3-OH-cBu; CH/CH; CH], the pIC50 is more than 6.30.
Regarding `CC#CCN1C(=O)c2ccccc2Sc2cc(NC(=O)C3CCCN3C)ccc21` (centres unmarked), the pIC50 was more than 6.30.

The assay is the same for the next values; noted with them: Table 9; HCT116, 72 hours; read-out: Activity.
`COCC1CC(C(=O)Nc2ccc3c(c2)C(C#N)c2ccccc2C(=O)N3CC#CCF)C1` (centres unmarked) [Table 9: —CH2CCCH2F; 3-MeOCH2-cBu; CHCN]: the pIC50 was more than 6.30.
In the case of `CC#CCN1C(=O)c2ccccc2C(C)c2cc(NC(=O)[C@@H]3C[C@H]3COC)ccc21` (relative stereo), the pIC50 was more than 6.30.
In the case of `CC1c2ccccc2C(=O)N(CC#CC2CC2)c2ccc(NC(=O)C=CCO)cc21` (centres unmarked) [Table 9: —CH2CC^cPr; CH═CHCH2OH; CHMe], the pIC50 is more than 6.30.

Still in this assay, the particulars now being: cell viability assay; Table 10 analogs of scaffold drawing 45 defined by R2, R3, X/Y, W; read-out: Activity.
Turning to `COC12CC(C(=O)Nc3cnc4c(c3)Sc3ccccc3C(=O)N4CC#CCF)(C1)C2`, the pIC50 is more than 6.30.
